These results are taken from patent EP4803081A2.

For this data set the following is noted: ester bond.

Each structure is given as a SMILES string. Where two headings read alike, the source gives them in different places.

The compound `CCn1c(-c2cc(N3CCN4CCOC[C@@H]4C3)cnc2[C@H](C)OC)c2c3cc(ccc31)-c1cccc(c1)C[C@H](NC(=O)OC(C)(C)C)C(=O)N1CCC[C@H](N1)C(=O)OCC(C)(C)C2` gave a ring closure, yield of all isomers (from CCn1c(-c2cc(N3CCN4CCOC[C@@H]4C3)cnc2[C@H](C)OC)c(CC(C)(C)CO)c2cc(-c3cccc(C[C@H](NC(=O)OC(C)(C)C)C(=O)N4CCC[C@@H](C(=O)O)N4)c3)ccc21, EDCI/HOBt/DIPEA, DCM, 7.56 mM, 25.0 °C, 16.0 h) of 81%. In the case of `CCn1c(-c2cc(N3CCN4CCCC[C@@H]4C3)cnc2[C@H](C)OC)c2c3cc(ccc31)N1CCO[C@@H](C[C@H](NC(=O)OC(C)(C)C)C(=O)N3CCC[C@H](N3)C(=O)OCC(C)(C)C2)C1`, the ring closure, yield of all isomers (from CCn1c(-c2cc(N3CCN4CCCC[C@@H]4C3)cnc2[C@H](C)OC)c(CC(C)(C)CO)c2cc(N3CCO[C@@H](C[C@H](NC(=O)OC(C)(C)C)C(=O)N4CCC[C@@H](C(=O)O)N4)C3)ccc21, EDCI/HOBt/DIPEA, DMF, 11.2 mM, 25.0 °C, 16.0 h) is 73%. Turning to `CCn1c(-c2cc(N3CCN4CCOC[C@@H]4C3)cnc2[C@H](C)OC)c2c3cc(ccc31)C1=CCCN(C1)C[C@H](NC(=O)OC(C)(C)C)C(=O)N1CCC[C@H](N1)C(=O)OCC(C)(C)C2`, the ring closure, yield of all isomers (from CCn1c(-c2cc(N3CCN4CCOC[C@@H]4C3)cnc2[C@H](C)OC)c(CC(C)(C)CO)c2cc(C3=CCCN(C[C@H](NC(=O)OC(C)(C)C)C(=O)N4CCC[C@@H](C(=O)O)N4)C3)ccc21, EDC·HCl/HOBt/DIPEA, DCM, 11.3 mM, 0.0 °C, 2.0 h) is 67%.

Turning to `CCn1c(-c2cccnc2[C@H](C)OC)c2c3cc(ccc31)-c1csc(n1)C[C@H](NC(=O)OC(C)(C)C)C(=O)N1CCC[C@H](N1)C(=O)OCC(C)(C)C2`, where the note is “from CCn1c(-c2cccnc2[C@H](C)OC)c(CC(C)(C)CO)c2cc(-c3csc(C[C@H](NC(=O)OC(C)(C)C)C(=O)N4CCC[C@@H](C(=O)O)N4)n3)ccc21, EDCI/HOBt/DIPEA, DCM, 12.65 mM, 25.0 °C, 16.0 h”, the ring closure, yield of all isomers was found to be 81%. As to `CCn1c(-c2cccnc2[C@H](C)OC)c2c3cc(ccc31)N1CCO[C@@H](C[C@H](NC(=O)OCc3ccccc3)C(=O)N3CCC[C@H](N3)C(=O)OCC(C)(C)C2)C1`, the ring closure, yield of all isomers (from CCn1c(-c2cccnc2[C@H](C)OC)c(CC(C)(C)CO)c2cc(N3CCO[C@@H](C[C@H](NC(=O)OCc4ccccc4)C(=O)N4CCC[C@@H](C(=O)O)N4)C3)ccc21, EDCI/HOBt/DIPEA, DCM, 12.75 mM, 25.0 °C, 16.0 h) was determined as 66%.

`CCn1c(-c2cc(N3CCN4CCC[C@@H]4C3)cnc2[C@H](C)OC)c2c3cc(ccc31)-c1cccc(c1)C[C@H](NC(=O)OC(C)(C)C)C(=O)N1CCC[C@H](N1)C(=O)OCC(C)(C)C2` returned a ring closure, yield of all isomers (from CCn1c(-c2cc(N3CCN4CCC[C@@H]4C3)cnc2[C@H](C)OC)c(CC(C)(C)CO)c2cc(-c3cccc(C[C@H](NC(=O)OC(C)(C)C)C(=O)N4CCC[C@@H](C(=O)O)N4)c3)ccc21, EDCI/HOBt/DIPEA, DCM, 16.7 mM, 25.0 °C, 16.0 h) of 42%.

`CO[C@@H](C)c1ncc(N2CCN(C3CC3)CC2)cc1-c1c2c3cc(ccc3n1CC(F)(F)F)-c1csc(n1)C[C@H](NC(=O)OC(C)(C)C)C(=O)N1CCC[C@H](N1)C(=O)OCC(C)(C)C2` came in with a ring closure, yield of all isomers (from CO[C@@H](C)c1ncc(N2CCN(C3CC3)CC2)cc1-c1c(CC(C)(C)CO)c2cc(-c3csc(C[C@H](NC(=O)OC(C)(C)C)C(=O)N4CCC[C@@H](C(=O)O)N4)n3)ccc2n1CC(F)(F)F, EDCI/HOBt/DIPEA, DCM, 21.07 mM, 25.0 °C, 16.0 h) of 51%. Turning to `CCn1c(-c2cc(N3CCN(C4CC4)CC3)cnc2[C@H](C)OC)c2c3cc(ccc31)C1=CCCN(C1)C[C@H](NC(=O)OC(C)(C)C)C(=O)N1CCC[C@H](N1)C(=O)OCC(C)(C)C2`, the ring closure, yield of all isomers (from CCn1c(-c2cc(N3CCN(C4CC4)CC3)cnc2[C@H](C)OC)c(CC(C)(C)CO)c2cc(C3=CCCN(C[C@H](NC(=O)OC(C)(C)C)C(=O)N4CCC[C@@H](C(=O)O)N4)C3)ccc21, EDCI/HOBt/DIPEA, DCM, 10.0 mM, 35.0 °C, 16.0 h) stood at 53%.

Take `CO[C@@H](C)c1ncc(N2CCN(C3CC3)CC2)cc1-c1c2c3cc(ccc3n1CC(F)(F)F)N1CCO[C@@H](C[C@H](NC(=O)OC(C)(C)C)C(=O)N3CCC[C@H](N3)C(=O)OCC(C)(C)C2)C1`: for the setting “from CO[C@@H](C)c1ncc(N2CCN(C3CC3)CC2)cc1-c1c(CC(C)(C)CO)c2cc(N3CCO[C@@H](C[C@H](NC(=O)OC(C)(C)C)C(=O)N4CCC[C@@H](C(=O)O)N4)C3)ccc2n1CC(F)(F)F, EDCI/HOBt/DIPEA, DCM, 9.22 mM, 25.0 °C, 16.0 h”, the ring closure, yield of all isomers is 64%. `CO[C@@H](C)c1ncc(N2CCN3CCOC[C@@H]3C2)cc1-c1c2c3cc(ccc3n1CC(F)(F)F)-c1cccc(c1)C[C@H](NC(=O)OC(C)(C)C)C(=O)N1CCC[C@H](N1)C(=O)OCC(C)(C)C2`: for the setting “from CO[C@@H](C)c1ncc(N2CCN3CCOC[C@@H]3C2)cc1-c1c(CC(C)(C)CO)c2cc(-c3cccc(C[C@H](NC(=O)OC(C)(C)C)C(=O)N4CCC[C@@H](C(=O)O)N4)c3)ccc2n1CC(F)(F)F, EDCI/HOBt/DIPEA, DCM, 5.34 mM, 25.0 °C, 16.0 h”, the ring closure, yield of all isomers is 98%.

Consider `CCn1c(-c2cccnc2[C@H](C)OC)c2c3cc(ccc31)C1=CCCN(C1)CC(NC(=O)OC(C)(C)C)C(=O)N1CCC[C@H](N1)C(=O)OCC(C)(C)C2` (some centres unmarked), for which the ring closure, yield of all isomers (from CCn1c(-c2cccnc2[C@H](C)OC)c(CC(C)(C)CO)c2cc(C3=CCCN(CC(NC(=O)OC(C)(C)C)C(=O)N4CCC[C@@H](C(=O)O)N4)C3)ccc21, EDCI/HOBt/DIPEA, DCM, 7.14 mM, 30.0 °C, 16.0 h) was found to be 40%. With `CO[C@@H](C)c1ncc(N2CCN(C3CC3)CC2)cc1-c1c2c3cc(ccc3n1CC(F)(F)F)-c1cccc(c1)C[C@H](NC(=O)OC(C)(C)C)C(=O)N1CCC[C@H](N1)C(=O)OCC(C)(C)C2`, where the note is “from CO[C@@H](C)c1ncc(N2CCN(C3CC3)CC2)cc1-c1c(CC(C)(C)CO)c2cc(-c3cccc(C[C@H](NC(=O)OC(C)(C)C)C(=O)N4CCC[C@@H](C(=O)O)N4)c3)ccc2n1CC(F)(F)F, EDCI/HOBt/DIPEA, DCM, 108.7 mM, 25.0 °C, 16.0 h”, the ring closure, yield of all isomers came out at 79%. For `CCn1c(-c2cc(N3CCN4CCCC[C@@H]4C3)cnc2[C@H](C)OC)c2c3cc(ccc31)C1=CCCN(C1)C[C@H](NC(=O)OC(C)(C)C)C(=O)N1CCC[C@H](N1)C(=O)OCC(C)(C)C2`, the ring closure, yield of all isomers (from CCn1c(-c2cc(N3CCN4CCCC[C@@H]4C3)cnc2[C@H](C)OC)c(CC(C)(C)CO)c2cc(C3=CCCN(C[C@H](NC(=O)OC(C)(C)C)C(=O)N4CCC[C@@H](C(=O)O)N4)C3)ccc21, EDC•HCl/HOBt/DIPEA, DCM, 11.3 mM, 0.0 °C, 16.0 h) amounted to 66%.

`CCn1c(-c2cc(N3CCN4CCCC[C@@H]4C3)cnc2[C@H](C)OC)c2c3cc(ccc31)-c1cccc(c1)C[C@H](NC(=O)OC(C)(C)C)C(=O)N1CCC[C@H](N1)C(=O)OCC(C)(C)C2` yielded a ring closure, yield of all isomers (from CCn1c(-c2cc(N3CCN4CCCC[C@@H]4C3)cnc2[C@H](C)OC)c(CC(C)(C)CO)c2cc(-c3cccc(C[C@H](NC(=O)OC(C)(C)C)C(=O)N4CCC[C@@H](C(=O)O)N4)c3)ccc21, EDCI/HOBt/DIPEA, DCM, 5.81 mM, 25.0 °C, 16.0 h) of 34%.

For the setting “from CCn1c(-c2cc(N3CCN(C4CC4)CC3)cnc2[C@H](C)OC)c(CC(C)(C)CO)c2cc(N3CCO[C@@H](C[C@H](NC(=O)OCc4ccccc4)C(=O)N4CCC[C@@H](C(=O)O)N4)C3)ccc21, EDCI/HOBt/DIPEA, DCM, 11.25 mM, 30.0 °C, 16.0 h”, `CCn1c(-c2cc(N3CCN(C4CC4)CC3)cnc2[C@H](C)OC)c2c3cc(ccc31)N1CCO[C@@H](C[C@H](NC(=O)OCc3ccccc3)C(=O)N3CCC[C@H](N3)C(=O)OCC(C)(C)C2)C1` yielded a ring closure, yield of all isomers of 50%. Where the note is “from CO[C@@H](C)c1ncc(N2CCN3CCCC[C@@H]3C2)cc1-c1c(CC(C)(C)CO)c2cc(-c3cccc(C[C@H](NC(=O)OC(C)(C)C)C(=O)N4CCC[C@@H](C(=O)O)N4)c3)ccc2n1CC(F)(F)F, EDCI/HOBt/DIPEA, DCM, 12.85 mM, 0.0 °C, 16.0 h”, `CO[C@@H](C)c1ncc(N2CCN3CCCC[C@@H]3C2)cc1-c1c2c3cc(ccc3n1CC(F)(F)F)-c1cccc(c1)C[C@H](NC(=O)OC(C)(C)C)C(=O)N1CCC[C@H](N1)C(=O)OCC(C)(C)C2` gave a ring closure, yield of all isomers of 65%.

Under “from CCn1c(-c2cc(N3CCN4CCOC[C@@H]4C3)cnc2[C@H](C)OC)c(CC(C)(C)CO)c2cc(-c3csc(C[C@H](NC(=O)OC(C)(C)C)C(=O)N4CCC[C@@H](C(=O)O)N4)n3)ccc21, EDCI/HOBt/DIPEA, DCM, 11.3 mM, 25.0 °C, 16.0 h”, `CCn1c(-c2cc(N3CCN4CCOC[C@@H]4C3)cnc2[C@H](C)OC)c2c3cc(ccc31)-c1csc(n1)C[C@H](NC(=O)OC(C)(C)C)C(=O)N1CCC[C@H](N1)C(=O)OCC(C)(C)C2` had a ring closure, yield of all isomers of 52%.

Turning to `CC1(C)COC(=O)[C@@H]2CCCN(N2)C(=O)[C@@H](NC(=O)OC(C)(C)C)Cc2cccc(c2)-c2ccc3[nH]c(I)c(c3c2)C1`, the ring closure, yield of all isomers (from CC(C)(CO)Cc1c(I)[nH]c2ccc(-c3cccc(C[C@H](NC(=O)OC(C)(C)C)C(=O)N4CCC[C@@H](C(=O)O)N4)c3)cc12, EDCI/HOBt/DIPEA, DCM, 12.77 mM, 0.0 °C, 16.0 h) worked out at 79.8%. Where the note is “from CCn1c(-c2cc(N3CCN(C(=O)OCc4ccccc4)CC3)cnc2[C@H](C)OC)c(CC(C)(C)CO)c2cc(-c3csc(C[C@H](NC(=O)OC(C)(C)C)C(=O)N4CCC[C@@H](C(=O)O)N4)n3)ccc21, EDCI/HOBt/DIPEA, MeCN, 10.34 mM, 25.0 °C, 16.0 h”, `CCn1c(-c2cc(N3CCN(C(=O)OCc4ccccc4)CC3)cnc2[C@H](C)OC)c2c3cc(ccc31)-c1csc(n1)C[C@H](NC(=O)OC(C)(C)C)C(=O)N1CCC[C@H](N1)C(=O)OCC(C)(C)C2` gave a ring closure, yield of all isomers of 55%. For the compound `CCn1c(-c2cc(N3CCN4CCCC[C@@H]4C3)cnc2[C@H](C)OC)c2c3cc(ccc31)-c1csc(n1)C[C@H](NC(=O)OC(C)(C)C)C(=O)N1CCC[C@H](N1)C(=O)OCC(C)(C)C2`, where the note is “from CCn1c(-c2cc(N3CCN4CCCC[C@@H]4C3)cnc2[C@H](C)OC)c(CC(C)(C)CO)c2cc(-c3csc(C[C@H](NC(=O)OC(C)(C)C)C(=O)N4CCC[C@@H](C(=O)O)N4)n3)ccc21, EDCI/HOBt/DIPEA, DCM, 11.3 mM, 25.0 °C, 16.0 h”, the ring closure, yield of all isomers turned out to be 49%.
